Measurements taken from US20240358779A1, “EXTRACELLULAR VESICLES DERIVED FROM LACTOBACILLUS BACTERIA, AND USE THEREOF” (MD HEALTHCARE INC., priority 2021, published 2024).

Test system: AMPK
Assay: AMPK phosphorylation (pAMPK) in myocytes (Western blotting)
Assay type: cell-based
Source text: During fasting or exercising, myocytes are depleted of energy, which causes a decrease in ATP production and an increase in AMP production. It is well known that, in this case, cells activate AMPK signaling to increase cellular homeostasis against metabolic stress. To evaluate a metabolic function regulating effect of Lactobacillus bacteria-derived vesicles, myocytes were each treated with Lactobacillus paracasei-derived vesicles (MDH-001-CM) and Lactobacillus rhamnosus-derived vesicles (MDH-003-CM) at concentrations of 0, 0.1, 1, and 10 μg/ml for 1 hour. Afterwards, the degree of AMPK phosphorylation (pAMPK), an indicator of AMPK signaling, was measured by Western blotting. As control drugs, 1 μM insulin and 50 mM metformin were used.

## CN(C)C(=N)N=C(N)N [metformin]
50 mM metformin
  phosphorylation of AMPK (pAMPK): increased

## insulin
1 μM insulin
  phosphorylation of AMPK (pAMPK): inhibited
